In US20240343713A1, “TELOMERASE INHIBITOR COMPOUNDS” (Geron Corporation, priority 2023, published 2024):

Tests used:
[1] = for deaths after first dose reduction: 25 mg/Kg (Compound 1, Compound 2) or 10 mg/Kg (Compound 3) PO on Day-10 and Day-12, deaths Day 11-13; for animals lost due to overdose early in the study: initial dosing 50 mg/Kg then 25 or 10 mg/Kg PO, 7 animals per group
Description: 7.1 Body Weight. The body weight data of NOD-SCID mice used for this study involving different treatment groups (Vehicle Control, 10 mg/Kg of the three treatment groups and 50 mg/Kg of the reference standard) was monitored every alternate day.

LUC-MOLM13 cell line = conditions: for leukemia cell burden / tumor load by bioluminescence imaging (BLI), overall: male NOD-SCID mice, LUC-MOLM13 i.v., PO alternate days, test compounds finally 10 mg/Kg, BIBR-1532 50 mg/Kg, up to Day 28, vs vehicle control
Description: Screening of anticancer activity of compounds in an efficacy model using Luc-MOLM13 cell line
The efficacy study was conducted to assess the tumor regression of Compound 1, Compound 2, and Compound 3 shown below in male NOD-SCID mice using LUC-MOLM13 cell line. Individual animals were assigned identification markings on the ear.
Each mouse was intravenously injected with 1 million LUC-MOLM13 tumor cells in a total volume of 0.1 mL in DPBS and this would be considered as Day 0. Luciferin (150 mg/Kg body weight) was planned to be injected (JP) 5 mins before imaging and sequential 1-2 images of mice were planned every 1 minute. The animals were planned to be dosed with test compounds from Day 10 onwards by oral route at doses of 50 mg/Kg every alternate day.
The efficacy study was conducted to assess the inhibitory effect of Compound 1, Compound 3 and Compound 2 on leukemia cell expansion in male NOD-SCID mice using LUC-MOLM13 cell line.
1 million of LUC-MOLM13 cells/100 μL were suspended in DPBS and were inoculated per mouse via intravenous route in the lateral tail vein in NOD SCID male mice (Fed animals) of 6 to 8 weeks old after 7 days of acclimatization. This was considered as Day-0 of the study.
Luciferin (150 mg/Kg body weight) was injected (IP) 5 mins before imaging and sequential 1-2 images of mice were taken every 1 minute.
Bioluminescence imaging for tumor evaluation was done on Days 0, 5, 10, 15, 18, 21 and 28 respectively along with regular body weight monitoring. The following observations were monitored at regular intervals: body weight (% body weight loss), frequencies of leukemic cells (LUC-MOLM13) in hematopoietic organs and non-lymphoid tissues using imaging on an IVIS spectrum imager for tumor burden evaluation.
Other observations included any clinical signs/observations upon dosing. […] A range of tissues were collected including brain, axillary lymph node, eyes, branchial lymph node, lungs, heart, stomach, liver, kidney, spleen, cervical lymph node, mesenteric lymph node, inguinal lymph node, GI tract and male reproductive organ. Growth kinetics of Luc-MOLM13 cells was monitored based on BLI along with survival curve.
Initial plan was to dose from Day 10 onwards by oral route at doses of 50 mg/Kg every alternate day; however, we initiated the dosing from Day-8 onwards based on few reports [7, 8]. […] BIBR-1532 dosing was maintained at 50 mg/Kg every alternate day. […] Dosing was stopped for the next 4 days for all test compounds and BIBR-1532 considering the animal health condition. […]
The data for bioluminescence imaging levels (BLI (Avg Radiance) was captured from the instrument across the individual groups for the ROI (region of interest (ROI) and the average radiance was calculated to understand the levels as compared to vehicle control (Group 3).

Row | Structure (SMILES) | deaths after first dose reduction [1] | animals lost due to overdose early in the study [1] | overall animal health ([1]; LUC-MOLM13 tumor-bearing NOD-SCID mice, test compounds 10 mg/Kg, BIBR-1532 50 mg/Kg PO) | bioluminescence (average radiance) on Day 21 (LUC-MOLM13 cell line; Day 21, test compounds 10 mg/Kg, BIBR-1532 50 mg/Kg PO) | survival curve / deaths (LUC-MOLM13 cell line; after dose reduction, test compounds 10 mg/Kg, BIBR-1532 50 mg/Kg PO alternate days, until Day 34) | leukemia cell burden / tumor load by bioluminescence imaging (BLI), overall (LUC-MOLM13 cell line) | loss of animals after the first dose ([1]; mouse, in vivo)
1 | C=C1CC(c2ccc(Cl)cc2-c2cn[nH]c2)OC1=O (stereo not shown) [Compound 1] | one animal each on Day 12 and Day-13 | two | – | – | – | – | –
2 | C/C(=C\C(=O)Nc1ccccc1C(=O)O)c1ccc2ccccc2c1 [BIBR-1532, reference compound] | – | – | deteriorated | signal was enhanced | one death on Day 31 and another on Day 34 | repressed as the days progressed | –
3 | C=C1C(=O)OC(c2ccc(Cl)cc2-c2cnn(C)c2)C1O (stereo not shown) [Compound 3] | 1 | two | – | – | – | comparable impact on leukemia cell reduction to that of BIBR-1532, albeit at a lower dosage | one
